Laboratory results reported in patent US4460595A, “Using urazole analogs of prostaglandins for bronchodilation” (Beecham Group Limited, priority 1976, dated 1984).

system: 5-hydroxytryptamineor histamine induced bronchoconstriction; assay: Inhibition of 5-hydroxytryptamine or histamine induced bronchoconstriction (Konzett-Rossler preparation); format: in vivo; conditions: Cavia porcellus, iv, anaesthetised artificially respired guinea-pig
Description: The compounds are examined for their ability to inhibit 5-hydroxytryptamineor histamine induced bronchoconstriction in the anaesthetised artificially respired guinea-pig (Konzett-Rossler preparation).
The ED50 values (μg/kg, i.v.) for inhibition of bronchoconstriction for a variety of the triazolidine-3,5-diones are given in Table 7.

How did the ED50 turn out when `CCCCC(C)C(C)(O)CCn1c(=O)n(C)c(=O)n1CCCCCCC(=O)OC` (stereo not shown) [Compound 32] was run?
The ED50 was 0.74 µg/kg.

With `CCCCCCC(C)(O)CCn1c(=O)n(C)c(=O)n1CC=CCCCC(=O)OC` (stereo not shown) [Compound 43, 1-(6'-methoxycarbonyl-n-hex-2-enyl)-2-(3"-hydroxy-3"-methyl-n-nonyl)-4-methyl-1,2,4-triazolidine-3,5-dione] as the molecule, how does the ED50 read?
Its ED50 is 1.9 µg/kg.

How did the ED50 turn out when `COC(=O)CCCCCCn1c(=O)n(C)c(=O)n1CCC(C)(O)Cc1ccccc1` (stereo not shown) [Compound 31] was run?
Its ED50 is 37 µg/kg.

`CCCCCC(O)CCn1c(=O)n(C)c(=O)n1CCCCCCC(=O)O` (stereo not shown) [Compound 24, 1-(6'-Carboxy-n-hexyl)-2-(3"-hydroxy-n-octyl)-4-methyl-1,2,4-triazolidine-3,5-dione] was tested. Which ED50 did it give?
Its ED50 is 4 µg/kg.

With `CCCCCC(O)CCn1c(=O)n(C)c(=O)n1CCCCCCC(=O)OCC` (stereo not shown) [Compound 21, 1-(6'-Ethoxycarbonyl-n-hexyl)-2-(3"-hydroxy-n-octyl)-4-methyl-1,2,4-triazolidine-3,5-dione] as the molecule, how does the ED50 read?
Its ED50 is 3.4 µg/kg.

With `COC(=O)CCCCCCn1c(=O)n(C)c(=O)n1CCC(C)(O)C1CCCCC1` (stereo not shown) [Compound 33] as the molecule, how does the ED50 read?
Its ED50 is 2.6 µg/kg.

How did the ED50 turn out when `CCCCCCC(C)(O)CCn1c(=O)n(C)c(=O)n1CCCCCCC(=O)OC` (stereo not shown) [Compound 29, 1-(6'-methoxycarbonyl-n-hexyl-)-2-(3"-hydroxy-3"-methyl-n-nonyl)-4-methyl-1,2,4-triazolidine-3,5-dione] was run?
The ED50 was 2.6 µg/kg.
